Measured values taken from ChEMBL document CHEMBL1156187, “Discovery of a selective small-molecule melanocortin-4 receptor agonist with efficacy in a pilot study of sexual dysfunction in humans” (J Med Chem, 2010).

Molecular target: Melanocortin receptor 4 (Homo sapiens, UniProt P32245)
Assay: Agonist activity at human recombinant MC4 receptor expressed in CHO cells by cAMP responsive beta lactamase reporter gene assay
Assay type: functional, cell-based
Conditions: not given

Chain of Melanocortin receptor 4 (P32245 whole entry): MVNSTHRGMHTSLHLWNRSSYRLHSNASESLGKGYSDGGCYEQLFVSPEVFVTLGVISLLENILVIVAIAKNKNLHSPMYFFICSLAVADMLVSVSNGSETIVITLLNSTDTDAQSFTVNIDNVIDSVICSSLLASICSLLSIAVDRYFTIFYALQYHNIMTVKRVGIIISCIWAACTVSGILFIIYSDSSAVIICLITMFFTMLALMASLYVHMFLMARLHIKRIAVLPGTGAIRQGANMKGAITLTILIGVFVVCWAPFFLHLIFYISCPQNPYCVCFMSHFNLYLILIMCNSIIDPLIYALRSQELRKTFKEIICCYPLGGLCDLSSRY

| SMILES | EC50 [nM] |
| --- | --- |
| C[C@@H]1CN(C(=O)[C@@H]2CN(C(C)(C)C)C[C@H]2c2ccc(F)cc2F)C[C@H](C)[C@@]1(O)c1cccc(C#N)c1 | 644 |
| C[C@@H]1CN(C(=O)[C@@H]2CN(C(C)(C)C)C[C@H]2c2ccc(F)cc2F)C[C@H](C)[C@@]1(O)c1cccnc1 | 3630 |
| C[C@@H]1CN(C(=O)[C@@H]2CN(C(C)(C)C)C[C@H]2c2ccc(F)cc2F)C[C@H](C)[C@@]1(O)c1cncnc1 | 11100 |
| CC(C)N1C[C@@H](C(=O)N2C[C@@H](C)[C@](O)(c3ccc(F)cc3F)[C@@H](C)C2)[C@H](c2ccc(F)cc2F)C1 | 220 |
| CCN1C[C@@H](C(=O)N2C[C@@H](C)[C@](O)(c3ccc(F)cc3)[C@@H](C)C2)[C@H](c2ccc(F)cc2F)C1 | 147 |
| CC(C)(C)N1C[C@@H](C(=O)N2CCC(O)(c3ccccc3)CC2)[C@H](c2ccc(F)cc2F)C1 | 1170 |
| C[C@@H]1CN(C(=O)C2CN(C(C)(C)C)CC2c2ccc(F)cc2F)C[C@H](C)[C@@]1(O)c1ccccc1 (mixture of isomers) | 3900 |
| CC(C)[C@@]1(O)[C@H](C)CN(C(=O)[C@@H]2CN(C(C)(C)C)C[C@H]2c2ccc(F)cc2F)C[C@@H]1C | 626 |
| C[C@@H]1CN(C(=O)[C@@H]2CN(C(C)(C)C)C[C@H]2c2ccc(F)cc2F)C[C@H](C)[C@@]1(O)c1ccc(C#N)cc1 | 347 |
| C[C@@H]1CN(C(=O)[C@@H]2CNC[C@H]2c2ccc(F)cc2F)C[C@H](C)[C@@]1(O)c1cccc(F)c1 | 159 |
| C[C@@H]1CN(C(=O)[C@H]2CN(C(C)(C)C)C[C@@H]2c2ccc(F)cc2F)C[C@H](C)[C@@]1(O)c1ccccc1 | > 10000 |
| C[C@@H]1CN(C(=O)[C@@H]2CNC[C@H]2c2ccc(F)cc2F)C[C@H](C)[C@@]1(O)c1ccc(F)c(F)c1 | 288 |

Stronger by EC50, values ahead:

| EC50 [nM] | SMILES |
| --- | --- |
| 52 | CC(C)N1C[C@@H](C(=O)N2C[C@@H](C)[C@](O)(c3ccc(F)cc3)[C@@H](C)C2)[C@H](c2ccc(F)cc2F)C1 |
| 40 | CC(C)N1C[C@@H](C(=O)N2C[C@@H](C)[C@](O)(c3cccc(F)c3)[C@@H](C)C2)[C@H](c2ccc(F)cc2F)C1 |
| 19 | CCCN1C[C@H](C(=O)N2C[C@@H](C)[C@](O)(c3ccccc3)[C@@H](C)C2)[C@@H](c2ccc(F)cc2F)C1 |
| 69 | CCN1C[C@@H](C(=O)N2C[C@@H](C)[C@](O)(c3ccc(F)c(F)c3)[C@@H](C)C2)[C@H](c2ccc(F)cc2F)C1 |
| 73 | CC(C)CN1C[C@H](C(=O)N2C[C@@H](C)[C@](O)(c3ccccc3)[C@@H](C)C2)[C@@H](c2ccc(F)cc2F)C1 |
| 91 | CC(C)N1C[C@@H](C(=O)N2C[C@@H](C)[C@](O)(c3ccc(Cl)cc3)[C@@H](C)C2)[C@H](c2ccc(F)cc2F)C1 |
| 81 | C[C@@H]1CN(C(=O)[C@H]2CN(CC3CC3)C[C@@H]2c2ccc(F)cc2F)C[C@H](C)[C@@]1(O)c1ccccc1 |
| 85 | CCN1C[C@@H](C(=O)N2C[C@@H](C)[C@](O)(c3ccccc3)[C@@H](C)C2)[C@H](c2ccc(F)cc2F)C1 |
| 89 | CC(C)[C@@]1(O)[C@H](C)CN(C(=O)[C@H]2CN(c3cccnn3)C[C@@H]2c2ccc(F)cc2F)C[C@@H]1C |
| 130 | C[C@@H]1CN(C(=O)[C@@H]2CN(C)C[C@H]2c2ccc(F)cc2F)C[C@H](C)[C@@]1(O)c1ccc(Cl)cc1 |
| 111 | C[C@@H]1CN(C(=O)[C@H]2CN(c3cnccn3)C[C@@H]2c2ccc(F)cc2F)C[C@H](C)[C@@]1(O)c1ccccc1 |
| 53 | COc1ccc([C@@]2(O)[C@H](C)CN(C(=O)[C@@H]3CN(C(C)(C)C)C[C@H]3c3ccc(F)cc3F)C[C@@H]2C)cc1 |
| 51 | CCN1C[C@@H](C(=O)N2C[C@@H](C)[C@](O)(c3ccc(F)cc3F)[C@@H](C)C2)[C@H](c2ccc(F)cc2F)C1 |
| 117 | C[C@@H]1CN(C(=O)[C@H]2CN(c3cncnc3)C[C@@H]2c2ccc(F)cc2F)C[C@H](C)[C@@]1(O)c1ccccc1 |

Test system: not listed separately
Assay: Intrinsic clearance in human liver microsome measured per mg of protein
Assay type: ADME
Conditions: liver microsomes

| microsomal CLint [µL/min/mg] | SMILES |
| --- | --- |
| 70 | CC(C)N1C[C@@H](C(=O)N2C[C@@H](C)[C@](O)(c3cccc(F)c3)[C@@H](C)C2)[C@H](c2ccc(F)cc2F)C1 |
| 34 | CC(C)N1C[C@@H](C(=O)N2C[C@@H](C)[C@](O)(c3ccc(Cl)cc3)[C@@H](C)C2)[C@H](c2ccc(F)cc2F)C1 |
| 7 | C[C@@H]1CN(C(=O)[C@@H]2CNC[C@H]2c2ccc(F)cc2F)C[C@H](C)[C@@]1(O)c1ccc(F)c(F)c1 |

Test system: not listed separately
Assay: Lipophilicity, log D at pH 7.4
Assay type: physicochemical
Conditions: buffer

| logD | SMILES |
| --- | --- |
| 3.2 | CC(C)N1C[C@@H](C(=O)N2C[C@@H](C)[C@](O)(c3cccc(F)c3)[C@@H](C)C2)[C@H](c2ccc(F)cc2F)C1 |
| 3.5 | CC(C)N1C[C@@H](C(=O)N2C[C@@H](C)[C@](O)(c3ccc(Cl)cc3)[C@@H](C)C2)[C@H](c2ccc(F)cc2F)C1 |
